Assay results published in patent US10167299B2, “1-(3-aminopropyl) substituted cyclic amine compounds, preparation method therefor, and pharmaceutical compositions and uses thereof” (SHANGHAI INSTITUTE OF MATERIA MEDICA, CHINESE ACADEMY OF …, priority 2013, dated 2019).
pIC50: −log10 of the molar value. Converted amounts (≈) assume the structure as drawn. Where two headings read alike, the source gives them in different places.

How the values were obtained:
CCR5 = CCR5 (Homo sapiens (Human), UniProt P51681); assay: Calcium flux inhibition experiment; type: cell-based; settings: for pIC50: HEK293/CCR5-Gα16 cell line, calcium flux, read-out: CCR5 IC50; for calcium influx inhibition effect in words, versus positive control compounds: conclusion from Table 1
CCR5, sequence (P51681 whole entry): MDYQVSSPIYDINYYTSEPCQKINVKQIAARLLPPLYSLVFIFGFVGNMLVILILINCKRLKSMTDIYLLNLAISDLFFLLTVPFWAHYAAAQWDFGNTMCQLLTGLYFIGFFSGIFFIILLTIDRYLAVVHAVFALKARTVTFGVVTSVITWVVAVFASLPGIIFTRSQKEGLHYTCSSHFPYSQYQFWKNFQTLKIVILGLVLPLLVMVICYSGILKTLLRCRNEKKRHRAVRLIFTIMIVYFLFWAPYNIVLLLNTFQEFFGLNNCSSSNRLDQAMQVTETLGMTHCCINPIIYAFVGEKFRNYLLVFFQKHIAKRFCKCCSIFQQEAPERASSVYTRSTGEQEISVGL
Source text: Experiment apparatus: FlexStation II
Experiment materials: HEK293/CCR5-Gα16 cell line, Fluo-4calcium dye (fluorescent-4 calcium ion dye) and FlexStation instrument.
Experiment theory: Activation of the receptor can cause the activation of Gα16 protein, thereby activating phospholipase C (PLC) to generate IP3 and DAG by establishing CCR5 and Ga16 co-transfected cell line. IP3 can bind to IP3 receptors on the endoplasmic reticulum and mitochondria in a cell, which can cause the release of intracellular calcium. Thus, determination of changes in intracellular calcium can be used as a method to detect CCR5 activation state. Fluo-4/AM is a fluorescent probe indicator for calcium used to measure calcium ion. As a non-polar lipid-soluble compound, after it enters into cells, AM group is dissociated to release Fluo-4 under the effect of cell lipolysis enzyme. Fluo-4 is a polar molecule and not easy to go through the lipid bilayer membrane, therefore it can stay within the cells for a long time. Ultimately, the level of activated Ga protein can be reflected by measuring the excited fluorescence intensity. If the screened compound can activate CCR5, it can greatly increase the calcium flux reaction; on the contrary, if the screened compound can antagonize CCR5, it can greatly reduce calcium flux reaction.
1. HEK293 cells which can stably express CCR5 were inoculated in a 96-well plate and incubated overnight.
2. The medium in each well into which cells were innoculated was removed and 40 μl/well of freshly prepared dye was added. The plate was placed in a 37° C. incubator and incubated for 40 minutes at constant temperature.
3. The medicament to be determined was diluted with calcium buffer to eight concentration gradients, which is 1×10^−4 M, 1×10^−5 M, 1×10^−6 M, 1×10^−7 M, 1×10^−8 M, 1×10^−9 M, 1×10^−10 M, and 1×10^−11 M, respectively, and homogeneously mixed.
4. The dye was removed. Freshly prepared calcium buffer was used to wash for one time, 50 μl of calcium buffer was added.
5. FlexStation II was used for detection. 25 μl of calcium buffer containing the medicament to be determined was added automatically from the 15th second.

[1] = Cytotoxicity (CC50) in TZM-bl cells; type: cell-based; settings: human
HIV-1SF162 virus strain = assay: Inhibition activity on TZM-bl cells infected with HIV-1SF162; settings: for EC50: Human immunodeficiency virus 1, TZM-bl; for therapeutic index (TI): TZM-bl cells infected with HIV-1SF162
[2] = TZM-bl cells (Table 3), read-out: CC50

## Cc1nnc(C(C)C)n1C1CC2CCC(C1)N2CC[C@H](NC(=O)C1CCCC1)c1ccc(F)s1 (stereo partly drawn) [Compound 39, N-[(1S)-3-[exo-3-(3-isopropyl-5-methyl-4H-1,2,4-triazol-4-yl)-8-azabicyclo[3.2.1]octane-8-yl]-1-(5-fluorothiophen-2-yl)propyl]cyclopentane-1-carboxamide]
CCR5
  pIC50: 8.85
  calcium influx inhibition effect in words, versus positive control compounds: better than the positive control compounds
[1]; [2]
  CC50: > 200 µg/mL
HIV-1SF162 virus strain
  EC50: 1.02 µg/mL (≈ 2.09 µM)
  therapeutic index (TI): >196.08

## COC(=O)N1CCc2c(nc(C)n2C2CC3CCC(C2)N3CC[C@H](NC(C)=O)c2nccs2)C1 (stereo partly drawn) [Compound 119, Methyl 1-{(endo)-8-[(S)-3-acetamido-3-(thiazol-2-yl)-propyl]-8-azabicyclo[3.2.1]octan-3-yl}-2-methyl-1,4,6,7-tetrahydro-5H-imidazo[4,5-c]pyridine-5-carboxylate]
CCR5
  pIC50: 8.32
  calcium influx inhibition effect in words, versus positive control compounds: better than the positive control compounds
[1]
  CC50: > 200 µg/mL
HIV-1SF162 virus strain
  EC50: 0.738 µg/mL (≈ 1.52 µM)
  therapeutic index (TI): >270.84

## CC(=O)N[C@@H](CCN1C2CCC1CC(n1c(C)nc3c1CCN(C(C)=O)C3)C2)c1ccc(F)s1 (stereo partly drawn) [Compound 131, N-{(1S)-3-[(3-endo)-3-(5-acetyl-2-methyl-4,5,6,7-tetrahydro-1H-imidazo[4,5-c]pyridin-1-yl)-8-azabicyclo[3.2.1]octane-8-yl]-1-(5-fluorothiophen-2-yl)-propyl}acetamide]
CCR5
  pIC50: 8.18
  calcium influx inhibition effect in words, versus positive control compounds: better than the positive control compounds
[1]; [2]
  CC50: > 200 µg/mL
HIV-1SF162 virus strain
  EC50: 0.098 µg/mL (≈ 0.201 µM)
  therapeutic index (TI): >1302.27

## CC(=O)N[C@@H](CCN1C2CCC1CC(n1c(C)nc3c1CCN(C(=O)C(C)C)C3)C2)c1ccc(F)s1 (stereo partly drawn) [Compound 135, N-{(1S)-3-[(3-endo)-3-(5-isobutyryl-2-methyl-4,5,6,7-tetrahydro-1H-imidazo[4,5-c]pyridin-1-yl)-8-azabicyclo[3.2.1]octane-8-yl]-1-(5-fluorothiophen-2-yl)-propyl}acetamide]
CCR5
  pIC50: 8.08
  calcium influx inhibition effect in words, versus positive control compounds: comparable to the positive control compounds
[1]
  CC50: > 200 µg/mL
HIV-1SF162 virus strain
  EC50: 0.155 µg/mL (≈ 0.301 µM)
  therapeutic index (TI): >1222.11

## Cc1ccc([C@H](CCN2C3CCC2CC(n2c(C)nnc2C(C)C)C3)NC(=O)c2ccccc2)s1 (stereo partly drawn) [Compound 32, N-[(1S)-3-[exo-3-(3-isopropyl-5-methyl-4H-1,2,4-triazol-4-yl)-8-azabicyclo[3.2.1]octane-8-yl]-1-(5-methylthiophen-2-yl)propyl]benzamide]
CCR5
  pIC50: 8.08
  calcium influx inhibition effect in words, versus positive control compounds: comparable to the positive control compounds
[1]
  CC50: > 200 µg/mL
HIV-1SF162 virus strain
  EC50: > 40 µg/mL

## CC(=O)N[C@@H](CCN1C2CCC1CC(n1c(C)nc3c1CCN(C(C)=O)C3)C2)c1ccc(Cl)s1 (stereo partly drawn) [Compound 125, N-{(1S)-3-[(3-endo)-3-(5-acetyl-2-methyl-4,5,6,7-tetrahydro-1H-imidazo[4,5-c]pyridin-1-yl)-8-azabicyclo[3.2.1]octane-8-yl]-1-(5-chlorothiophen-2-yl)-propyl}acetamide]
CCR5
  pIC50: 7.91
[1]
  CC50: > 200 µg/mL
HIV-1SF162 virus strain
  EC50: 0.286 µg/mL (≈ 0.567 µM)
  therapeutic index (TI): >699.27

## Cc1nnc(C(C)C)n1C1CC2CCC(C1)N2CC[C@H](NC(=O)C1CCC(F)(F)CC1)c1csc2ccccc12 (stereo partly drawn) [Compound 27, 4,4-difluoro-N-[(1S)-3-[exo-3-(3-isopropyl-5-methyl-4H-1,2,4-triazol-4-yl)-8-azabicyclo[3.2.1]octane-8-yl]-1-(benzothiophen-3-yl)propyl]cyclohexane-1-carboxamide]
[1]
  CC50 at 3 days: 96.1 µg/mL (≈ 169 µM)
HIV-1SF162 virus strain
  EC50: 0.511 µg/mL (≈ 0.897 µM)
  therapeutic index (TI): 188.14

## Cc1nnc(C(C)C)n1C1CC2CCC(C1)N2CC[C@H](NC(=O)C1CCCCC1)c1ccc(F)nc1 (some centres unmarked) [Compound 35]
CCR5
  pIC50: 6.57
[1]
  CC50: > 200 µg/mL
HIV-1SF162 virus strain
  EC50: > 40 µg/mL

## CCC(=O)N1CCc2c(nc(C)n2C2CC3CCC(C2)N3CC[C@H](NC(C)=O)c2nccs2)C1 (stereo partly drawn) [Compound 120, N-{(1S)-3-[(3-endo)-3-(5-propionyl-2-methyl-4,5,6,7-tetrahydro-1H-imidazo[4,5-c]pyridin-1-yl)-8-azabicyclo[3.2.1]octane-8-yl]-1-(thiazol-2-yl)-propyl}acetamide]
CCR5
  pIC50: 7.56
[1]
  CC50: > 200 µg/mL
HIV-1SF162 virus strain
  EC50: 0.831 µg/mL (≈ 1.71 µM)
  therapeutic index (TI): >240.76

## CC(=O)N[C@@H](CCN1C2CCC1CC(n1c(C)nc3c1CCN(C(=O)C(C)C)C3)C2)c1ccc(Cl)s1 (stereo partly drawn) [Compound 129, N-{(1S)-3-[(3-endo)-3-(5-isobutyryl-2-methyl-4,5,6,7-tetrahydro-1H-imidazo[4,5-c]pyridin-1-yl)-8-azabicyclo[3.2.1]octane-8-yl]-1-(5-chlorothiophen-2-yl)-propyl}acetamide]
CCR5
  pIC50: 7.85
[1]
  CC50: > 200 µg/mL
HIV-1SF162 virus strain
  EC50: 0.072 µg/mL (≈ 0.135 µM)
  therapeutic index (TI): >1526.72

## CCCC(=O)N1CCc2c(nc(C)n2C2CC3CCC(C2)N3CC[C@H](NC(C)=O)c2ccc(F)s2)C1 (stereo partly drawn) [Compound 136, N-{(1S)-3-[(3-endo)-3-(5-n-butyryl-2-methyl-4,5,6,7-tetrahydro-1H-imidazo[4,5-c]pyridin-1-yl)-8-azabicyclo[3.2.1]octane-8-yl]-1-(5-fluorothiophen-2-yl)-propyl}acetamide]
CCR5
  pIC50: 7.66
[1]; [2]
  CC50: > 200 µg/mL
HIV-1SF162 virus strain
  EC50: 0.011 µg/mL (≈ 0.0213 µM)
  therapeutic index (TI): >4834.51

## CC(=O)N[C@@H](CCN1C2CCC1CC(n1c(C)nc3c1CCN(C(=O)C1CC1)C3)C2)c1ccc(F)s1 (stereo partly drawn) [Compound 132, N-{(1S)-3-[(3-endo)-3-(5-cyclopropionyl-2-methyl-4,5,6,7-tetrahydro-1H-imidazo[4,5-c]pyridin-1-yl)-8-azabicyclo[3.2.1]octane-8-yl]-1-(5-fluorothiophen-2-yl)-propyl}acetamide]
CCR5
  pIC50: 7.65
[1]; [2]
  CC50: > 200 µg/mL
HIV-1SF162 virus strain
  EC50: 0.097 µg/mL (≈ 0.189 µM)
  therapeutic index (TI): >2063.25

## CC(=O)N[C@@H](CCN1C2CCC1CC(n1c(C)nc3c1CCN(C(=O)C1CC1)C3)C2)c1nccs1 (stereo partly drawn) [Compound 122, N-{(1S)-3-[(3-endo)-3-(5-cyclopropionyl-2-methyl-4,5,6,7-tetrahydro-1H-imidazo[4,5-c]pyridin-1-yl)-8-azabicyclo[3.2.1]octane-8-yl]-1-(thiazol-2-yl)-propyl}acetamide]
CCR5
  pIC50: 7.61
[1]
  CC50: > 200 µg/mL
HIV-1SF162 virus strain
  EC50: 0.69 µg/mL (≈ 1.39 µM)
  therapeutic index (TI): >290.06

## Cc1nnc(C(C)C)n1C1CC2CCC(C1)N2CC[C@H](NC(=O)C1CCC(F)(F)CC1)c1ccc(F)s1 (stereo partly drawn) [Compound 37, 4,4-difluoro-N-[(1S)-3-[exo-3-(3-isopropyl-5-methyl-4H-1,2,4-triazol-4-yl)-8-azabicyclo[3.2.1]octane-8-yl]-1-(5-fluorothiophen-2-yl)propyl]cyclohexane-1-carboxamide]
[1]
  CC50 at 3 days: > 200 µg/mL
HIV-1SF162 virus strain
  EC50: 0.647 µg/mL (≈ 1.2 µM)
  therapeutic index (TI): >309.12

## CC(=O)N[C@@H](CCN1C2CCC1CC(n1c(C)nnc1C(C)C)C2)c1csc2ccccc12 (stereo partly drawn) [Compound 28, N-[(1S)-3-[exo-3-(3-isopropyl-5-methyl-4H-1,2,4-triazol-4-yl)-8-azabicyclo[3.2.1]octane-8-yl]-1-(benzothiophen-3-yl)propyl]acetamide]
[1]; [2]
  CC50 at 3 days: > 200 µg/mL
HIV-1SF162 virus strain
  EC50: > 40 µg/mL
